Data from ChEMBL document CHEMBL3991601, “The target landscape of clinical kinase drugs” (Science, 2017).
Activity calls are given as the source filed them.

Columns and labels:
[1] = target: Serine/threonine-protein kinase ATR (Homo sapiens, UniProt Q13535)
[2] = target: Epidermal growth factor receptor (Homo sapiens, UniProt P00533)
[3] = target: T1, Eukaryotic translation initiation factor 5B (Homo sapiens, UniProt O60841)
T1 sequence (O60841 whole entry): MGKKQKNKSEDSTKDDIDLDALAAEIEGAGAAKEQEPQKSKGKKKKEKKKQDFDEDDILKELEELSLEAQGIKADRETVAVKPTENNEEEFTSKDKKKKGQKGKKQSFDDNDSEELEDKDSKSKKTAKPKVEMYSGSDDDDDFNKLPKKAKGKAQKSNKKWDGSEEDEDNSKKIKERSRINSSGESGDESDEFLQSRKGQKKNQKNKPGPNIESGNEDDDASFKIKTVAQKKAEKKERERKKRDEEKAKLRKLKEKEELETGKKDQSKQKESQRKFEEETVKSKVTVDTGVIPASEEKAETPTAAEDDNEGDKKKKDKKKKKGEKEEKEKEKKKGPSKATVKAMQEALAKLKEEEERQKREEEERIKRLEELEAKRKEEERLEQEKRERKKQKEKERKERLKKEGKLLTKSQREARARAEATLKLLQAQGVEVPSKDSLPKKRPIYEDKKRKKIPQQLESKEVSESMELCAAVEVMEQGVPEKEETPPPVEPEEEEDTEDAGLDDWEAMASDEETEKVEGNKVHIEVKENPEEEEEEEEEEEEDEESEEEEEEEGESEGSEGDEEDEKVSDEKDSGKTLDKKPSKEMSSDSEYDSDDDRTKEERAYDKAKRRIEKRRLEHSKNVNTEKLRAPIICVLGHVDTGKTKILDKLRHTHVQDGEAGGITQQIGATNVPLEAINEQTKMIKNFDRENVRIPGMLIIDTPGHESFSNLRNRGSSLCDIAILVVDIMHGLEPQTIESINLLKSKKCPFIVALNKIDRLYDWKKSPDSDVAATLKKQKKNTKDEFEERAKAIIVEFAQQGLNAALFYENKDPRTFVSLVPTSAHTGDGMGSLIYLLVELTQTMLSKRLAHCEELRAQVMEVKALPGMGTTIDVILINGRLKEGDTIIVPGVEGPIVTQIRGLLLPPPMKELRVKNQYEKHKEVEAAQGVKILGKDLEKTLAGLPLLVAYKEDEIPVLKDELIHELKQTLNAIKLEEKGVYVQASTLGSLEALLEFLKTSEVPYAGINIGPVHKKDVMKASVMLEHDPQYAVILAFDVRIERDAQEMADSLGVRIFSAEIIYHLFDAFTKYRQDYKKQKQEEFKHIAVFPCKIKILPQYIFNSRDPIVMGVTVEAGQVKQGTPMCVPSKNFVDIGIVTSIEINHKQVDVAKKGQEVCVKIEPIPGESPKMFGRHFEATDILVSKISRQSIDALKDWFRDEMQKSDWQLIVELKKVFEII

[4] = target: T2, Inhibitor of nuclear factor kappa-B kinase subunit epsilon (Homo sapiens, UniProt Q14164)
T2 sequence (Q14164 whole entry): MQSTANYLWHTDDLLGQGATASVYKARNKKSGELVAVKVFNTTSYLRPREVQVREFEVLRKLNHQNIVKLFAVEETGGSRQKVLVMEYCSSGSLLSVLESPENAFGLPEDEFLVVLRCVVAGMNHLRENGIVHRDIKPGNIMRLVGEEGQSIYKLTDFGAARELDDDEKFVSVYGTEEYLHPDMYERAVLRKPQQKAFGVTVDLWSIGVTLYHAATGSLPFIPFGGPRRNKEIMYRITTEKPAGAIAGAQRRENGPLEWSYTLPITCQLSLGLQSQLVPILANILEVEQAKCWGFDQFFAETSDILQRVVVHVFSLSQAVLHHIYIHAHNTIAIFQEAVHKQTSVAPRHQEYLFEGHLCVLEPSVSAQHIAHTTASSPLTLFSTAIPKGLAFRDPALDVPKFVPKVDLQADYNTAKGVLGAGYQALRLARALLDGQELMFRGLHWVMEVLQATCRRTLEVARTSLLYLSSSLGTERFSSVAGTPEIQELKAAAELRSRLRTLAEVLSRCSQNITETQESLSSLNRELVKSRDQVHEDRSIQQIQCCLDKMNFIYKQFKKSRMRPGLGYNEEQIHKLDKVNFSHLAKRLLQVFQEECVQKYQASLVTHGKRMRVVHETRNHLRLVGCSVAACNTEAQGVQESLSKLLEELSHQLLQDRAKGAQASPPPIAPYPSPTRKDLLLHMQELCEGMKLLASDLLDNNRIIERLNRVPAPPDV

[5] = target: High affinity nerve growth factor receptor (Homo sapiens, UniProt P04629)
[6] = target: PAS domain-containing serine/threonine-protein kinase (Homo sapiens, UniProt Q96RG2)
[7] = target: Serine/threonine-protein kinase N3 (Homo sapiens, UniProt Q6P5Z2)
[8] = target: Proto-oncogene tyrosine-protein kinase receptor Ret (Homo sapiens, UniProt P07949)
[9] = target: Dual specificity testis-specific protein kinase 1 (Homo sapiens, UniProt Q15569)
[10] = target: T3, Adenine phosphoribosyltransferase (Homo sapiens, UniProt P07741)
T3 sequence (P07741 whole entry): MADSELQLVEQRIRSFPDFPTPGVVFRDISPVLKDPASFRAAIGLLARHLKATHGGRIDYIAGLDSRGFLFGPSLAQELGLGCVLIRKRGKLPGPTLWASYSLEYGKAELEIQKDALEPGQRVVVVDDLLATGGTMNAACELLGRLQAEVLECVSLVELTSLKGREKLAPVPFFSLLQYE

[11] = target: Serine/threonine-protein kinase MRCK gamma (Homo sapiens, UniProt Q6DT37)
[12] = target: Hepatocyte growth factor receptor (Homo sapiens, UniProt P08581)
[13] = target: Membrane-associated progesterone receptor component 1 (Homo sapiens, UniProt O00264)
Also: in the data inactive means no Kd found up to 30 µM.

Serine/threonine-protein kinase N3, sequence (Q6P5Z2 whole entry): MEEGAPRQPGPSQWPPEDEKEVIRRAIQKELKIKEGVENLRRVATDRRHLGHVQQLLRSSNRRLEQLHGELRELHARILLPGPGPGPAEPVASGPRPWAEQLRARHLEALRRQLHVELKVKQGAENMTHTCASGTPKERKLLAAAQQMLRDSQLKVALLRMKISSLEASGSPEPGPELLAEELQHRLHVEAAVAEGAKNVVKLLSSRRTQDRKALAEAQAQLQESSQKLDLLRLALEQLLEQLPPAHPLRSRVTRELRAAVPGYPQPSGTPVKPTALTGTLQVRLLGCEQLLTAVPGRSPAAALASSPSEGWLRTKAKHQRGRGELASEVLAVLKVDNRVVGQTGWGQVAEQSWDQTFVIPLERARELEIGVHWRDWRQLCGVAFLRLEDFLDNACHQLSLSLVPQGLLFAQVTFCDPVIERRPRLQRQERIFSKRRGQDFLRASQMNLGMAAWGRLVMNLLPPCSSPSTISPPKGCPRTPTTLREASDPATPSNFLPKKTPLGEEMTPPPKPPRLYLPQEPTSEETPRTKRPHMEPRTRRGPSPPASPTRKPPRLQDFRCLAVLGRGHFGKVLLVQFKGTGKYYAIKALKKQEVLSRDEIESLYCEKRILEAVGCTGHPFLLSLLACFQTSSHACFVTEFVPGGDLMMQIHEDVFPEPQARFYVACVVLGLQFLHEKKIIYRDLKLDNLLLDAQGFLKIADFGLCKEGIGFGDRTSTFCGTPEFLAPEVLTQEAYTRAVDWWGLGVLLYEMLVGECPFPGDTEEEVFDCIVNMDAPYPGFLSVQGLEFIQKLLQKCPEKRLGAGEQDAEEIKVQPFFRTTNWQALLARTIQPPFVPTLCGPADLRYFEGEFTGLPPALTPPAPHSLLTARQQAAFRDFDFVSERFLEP
High affinity nerve growth factor receptor, sequence (P04629 whole entry, the tested form may be a part): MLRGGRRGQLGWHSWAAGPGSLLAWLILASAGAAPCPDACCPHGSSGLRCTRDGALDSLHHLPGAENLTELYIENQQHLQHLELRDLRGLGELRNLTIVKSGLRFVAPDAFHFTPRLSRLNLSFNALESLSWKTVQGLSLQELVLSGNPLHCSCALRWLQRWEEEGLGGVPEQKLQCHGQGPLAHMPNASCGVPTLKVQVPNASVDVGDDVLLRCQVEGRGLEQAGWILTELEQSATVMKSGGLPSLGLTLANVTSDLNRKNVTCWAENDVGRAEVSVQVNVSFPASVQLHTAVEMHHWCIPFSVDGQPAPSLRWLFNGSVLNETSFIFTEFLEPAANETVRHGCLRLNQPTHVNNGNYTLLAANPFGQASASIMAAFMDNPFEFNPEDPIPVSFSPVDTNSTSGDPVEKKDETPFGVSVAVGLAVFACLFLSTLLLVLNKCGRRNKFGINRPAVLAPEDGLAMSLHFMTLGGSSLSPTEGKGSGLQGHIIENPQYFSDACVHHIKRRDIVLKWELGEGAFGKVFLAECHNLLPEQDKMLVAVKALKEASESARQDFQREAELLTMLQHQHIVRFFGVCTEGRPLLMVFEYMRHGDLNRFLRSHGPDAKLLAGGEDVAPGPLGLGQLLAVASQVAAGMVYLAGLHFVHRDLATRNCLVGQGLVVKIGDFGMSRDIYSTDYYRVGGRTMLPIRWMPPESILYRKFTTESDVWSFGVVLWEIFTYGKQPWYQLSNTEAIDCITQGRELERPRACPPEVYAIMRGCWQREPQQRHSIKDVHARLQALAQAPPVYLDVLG
Epidermal growth factor receptor, sequence (P00533 whole entry): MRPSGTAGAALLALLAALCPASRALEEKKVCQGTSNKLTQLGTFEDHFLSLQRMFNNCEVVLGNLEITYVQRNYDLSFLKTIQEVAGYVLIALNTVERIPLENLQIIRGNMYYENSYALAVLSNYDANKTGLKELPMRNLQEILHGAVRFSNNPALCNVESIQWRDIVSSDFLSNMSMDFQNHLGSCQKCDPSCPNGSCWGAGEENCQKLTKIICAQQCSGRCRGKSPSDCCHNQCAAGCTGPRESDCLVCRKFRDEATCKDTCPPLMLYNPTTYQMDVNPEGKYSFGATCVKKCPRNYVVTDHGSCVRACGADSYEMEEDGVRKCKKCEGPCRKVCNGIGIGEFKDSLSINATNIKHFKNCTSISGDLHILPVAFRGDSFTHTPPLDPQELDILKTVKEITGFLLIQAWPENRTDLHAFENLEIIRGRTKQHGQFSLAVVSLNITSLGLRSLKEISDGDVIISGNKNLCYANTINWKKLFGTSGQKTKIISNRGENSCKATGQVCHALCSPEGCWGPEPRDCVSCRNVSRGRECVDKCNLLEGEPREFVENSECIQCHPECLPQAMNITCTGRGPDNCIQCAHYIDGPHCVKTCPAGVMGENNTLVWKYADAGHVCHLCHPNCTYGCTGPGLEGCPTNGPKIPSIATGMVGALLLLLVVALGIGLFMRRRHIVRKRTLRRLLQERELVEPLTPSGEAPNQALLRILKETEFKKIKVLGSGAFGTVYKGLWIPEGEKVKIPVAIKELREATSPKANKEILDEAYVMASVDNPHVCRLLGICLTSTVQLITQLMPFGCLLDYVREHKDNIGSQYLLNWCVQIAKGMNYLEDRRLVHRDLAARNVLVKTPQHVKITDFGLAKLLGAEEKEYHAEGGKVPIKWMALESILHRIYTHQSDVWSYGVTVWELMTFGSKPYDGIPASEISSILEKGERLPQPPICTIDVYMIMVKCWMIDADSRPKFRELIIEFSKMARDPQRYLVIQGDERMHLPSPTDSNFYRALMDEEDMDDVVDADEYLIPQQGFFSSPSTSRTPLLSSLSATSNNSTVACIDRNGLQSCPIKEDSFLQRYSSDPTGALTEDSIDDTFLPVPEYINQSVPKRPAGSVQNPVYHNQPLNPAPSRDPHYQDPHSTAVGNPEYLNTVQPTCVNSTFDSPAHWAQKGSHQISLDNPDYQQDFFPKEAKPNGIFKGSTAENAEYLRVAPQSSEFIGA
Hepatocyte growth factor receptor, sequence (P08581 whole entry): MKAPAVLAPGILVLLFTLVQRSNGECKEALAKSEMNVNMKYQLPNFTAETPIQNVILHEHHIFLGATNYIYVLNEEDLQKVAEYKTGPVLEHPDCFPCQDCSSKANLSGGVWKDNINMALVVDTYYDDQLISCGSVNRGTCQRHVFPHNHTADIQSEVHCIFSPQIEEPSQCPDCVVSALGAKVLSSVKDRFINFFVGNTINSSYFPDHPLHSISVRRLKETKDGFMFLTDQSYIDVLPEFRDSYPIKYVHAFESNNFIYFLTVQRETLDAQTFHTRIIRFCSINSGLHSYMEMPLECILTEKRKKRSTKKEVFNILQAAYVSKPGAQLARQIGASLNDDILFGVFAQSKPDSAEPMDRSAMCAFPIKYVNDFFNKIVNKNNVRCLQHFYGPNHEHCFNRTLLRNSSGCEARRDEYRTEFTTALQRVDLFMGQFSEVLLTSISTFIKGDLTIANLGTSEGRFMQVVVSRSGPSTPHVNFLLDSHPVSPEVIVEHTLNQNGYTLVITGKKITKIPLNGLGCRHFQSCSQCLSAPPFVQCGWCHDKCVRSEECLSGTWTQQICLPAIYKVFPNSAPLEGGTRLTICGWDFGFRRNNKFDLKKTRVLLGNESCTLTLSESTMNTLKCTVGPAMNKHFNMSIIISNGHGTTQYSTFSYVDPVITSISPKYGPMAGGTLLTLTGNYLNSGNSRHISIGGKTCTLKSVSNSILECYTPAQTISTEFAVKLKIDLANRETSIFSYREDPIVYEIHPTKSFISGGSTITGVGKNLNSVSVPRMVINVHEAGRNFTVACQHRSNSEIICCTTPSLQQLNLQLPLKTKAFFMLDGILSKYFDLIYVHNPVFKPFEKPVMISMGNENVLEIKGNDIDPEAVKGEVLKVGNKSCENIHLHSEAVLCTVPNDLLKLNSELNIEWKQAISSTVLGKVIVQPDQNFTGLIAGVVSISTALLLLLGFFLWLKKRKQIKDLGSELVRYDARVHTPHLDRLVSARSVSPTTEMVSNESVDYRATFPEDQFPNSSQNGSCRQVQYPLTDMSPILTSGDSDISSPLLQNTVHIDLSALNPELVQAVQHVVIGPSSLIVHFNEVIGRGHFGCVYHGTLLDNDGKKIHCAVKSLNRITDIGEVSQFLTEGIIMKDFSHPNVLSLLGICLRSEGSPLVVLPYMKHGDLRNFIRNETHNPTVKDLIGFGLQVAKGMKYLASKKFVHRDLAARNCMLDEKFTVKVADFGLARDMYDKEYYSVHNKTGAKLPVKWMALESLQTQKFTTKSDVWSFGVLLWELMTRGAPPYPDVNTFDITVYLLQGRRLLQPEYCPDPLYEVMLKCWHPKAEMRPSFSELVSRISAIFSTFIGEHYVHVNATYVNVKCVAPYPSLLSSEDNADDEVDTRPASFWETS
Membrane-associated progesterone receptor component 1, sequence (O00264 whole entry): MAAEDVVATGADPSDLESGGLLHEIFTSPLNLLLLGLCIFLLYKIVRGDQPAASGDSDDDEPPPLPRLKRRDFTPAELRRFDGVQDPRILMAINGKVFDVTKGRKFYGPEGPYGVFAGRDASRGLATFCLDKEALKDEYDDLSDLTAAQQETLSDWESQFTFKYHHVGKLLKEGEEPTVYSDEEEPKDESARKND

| Kd [1] | Kd [2] | Kd [3] | Kd [4] | Kd [5] | Kd [6] | Kd [7] | Kd [8] | Kd [9] | Kd [10] | Kd [11] | Kd [12] | Kd [13] | Compound |
| --- | --- | --- | --- | --- | --- | --- | --- | --- | --- | --- | --- | --- | --- |
| > 30 µM (inactive) | > 30 µM (inactive) | > 30 µM (inactive) | > 30 µM (inactive) | > 30 µM (inactive) | > 30 µM (inactive) | > 30 µM (inactive) | > 30 µM (inactive) | > 30 µM (inactive) |  |  |  |  | Cc1ccc(S(=O)(=O)Nc2nc3ccccc3nc2Nc2ccc3nsnc3c2)cc1 |
| > 30 µM (inactive) |  | > 30 µM (inactive) | > 30 µM (inactive) | > 30 µM (inactive) | > 30 µM (inactive) |  |  | > 30 µM (inactive) | > 30 µM (inactive) | > 30 µM (inactive) | > 30 µM (inactive) |  | CCN1CCN(Cc2ccc(-c3cc4c(N[C@H](C)c5ccccc5)ncnc4[nH]3)cc2)CC1 [AEE-788] |
| > 30 µM (inactive) | 20.8 µM (active) | > 30 µM (inactive) | > 30 µM (inactive) | > 30 µM (inactive) |  |  | > 30 µM (inactive) | > 30 µM (inactive) |  | > 30 µM (inactive) | > 30 µM (inactive) |  | COc1cc(N2CCC(N3CCN(C)CC3)CC2)ccc1Nc1ncnc(Nc2ccccc2S(=O)(=O)C(C)C)n1 [ASP-3026] |
| > 30 µM (inactive) | > 30 µM (inactive) |  | > 30 µM (inactive) | > 30 µM (inactive) |  |  | > 30 µM (inactive) | > 30 µM (inactive) |  |  | > 30 µM (inactive) |  | C[C@@H](Nc1cc(F)cc(F)c1)c1cc(C(=O)N(C)C)cc2c(=O)cc(N3CCOCC3)oc12 [AZD-8186] |
| > 30 µM (inactive) | > 30 µM (inactive) | > 30 µM (inactive) | > 30 µM (inactive) |  | > 30 µM (inactive) |  | 0.973 µM (active) | > 30 µM (inactive) | > 30 µM (inactive) | > 30 µM (inactive) | > 30 µM (inactive) | > 30 µM (inactive) | CCS(=O)(=O)N1CC(CC#N)(n2cc(-c3ncnc4[nH]ccc34)cn2)C1 [BARICITINIB] |
| > 30 µM (inactive) | > 30 µM (inactive) |  | > 30 µM (inactive) | > 30 µM (inactive) |  | > 30 µM (inactive) | > 30 µM (inactive) | > 30 µM (inactive) | > 30 µM (inactive) | > 30 µM (inactive) |  |  | CNC(=O)c1ccc(-c2cnc3ncc(Cc4ccc5ncccc5c4)n3n2)cc1F [CAPMATINIB] |
| > 30 µM (inactive) | > 30 µM (inactive) | > 30 µM (inactive) |  |  | > 30 µM (inactive) | > 30 µM (inactive) |  | > 30 µM (inactive) | > 30 µM (inactive) | > 30 µM (inactive) |  | > 30 µM (inactive) | CCc1cnn2c(NCc3ccc[n+]([O-])c3)cc(N3CCCC[C@H]3CCO)nc12 [DINACICLIB] |
| > 30 µM (inactive) | > 30 µM (inactive) |  | > 30 µM (inactive) | > 30 µM (inactive) |  |  | > 30 µM (inactive) | > 30 µM (inactive) |  | > 30 µM (inactive) | > 30 µM (inactive) | > 30 µM (inactive) | O=C1NC(=O)/C(=C/c2ccc3nccc(-c4ccncc4)c3c2)S1 [GSK-1059615] |
| > 30 µM (inactive) | > 30 µM (inactive) | > 30 µM (inactive) |  | > 30 µM (inactive) | > 30 µM (inactive) | > 30 µM (inactive) | > 30 µM (inactive) | > 30 µM (inactive) | > 30 µM (inactive) | > 30 µM (inactive) |  | > 30 µM (inactive) | CC[C@H](Nc1ncnc2[nH]cnc12)c1nc2cccc(F)c2c(=O)n1-c1ccccc1 [IDELALISIB] |
| > 30 µM (inactive) | > 30 µM (inactive) |  |  |  | > 30 µM (inactive) | > 30 µM (inactive) |  | > 30 µM (inactive) | > 30 µM (inactive) | > 30 µM (inactive) |  | > 30 µM (inactive) | OCCn1cc(-c2cnc3nnn(Cc4ccc5ncccc5c4)c3n2)cn1 [PF-04217903] |
| > 30 µM (inactive) | > 30 µM (inactive) | > 30 µM (inactive) | > 30 µM (inactive) | > 30 µM (inactive) | > 30 µM (inactive) |  | > 30 µM (inactive) | > 30 µM (inactive) |  | > 30 µM (inactive) | > 30 µM (inactive) | > 30 µM (inactive) | CN(C)C(=O)c1cc2cnc(Nc3ccc(N4CCNCC4)cn3)nc2n1C1CCCC1 [RIBOCICLIB] |
| > 30 µM (inactive) | > 30 µM (inactive) | > 30 µM (inactive) | > 30 µM (inactive) | > 30 µM (inactive) | > 30 µM (inactive) | > 30 µM (inactive) | > 30 µM (inactive) | > 30 µM (inactive) |  | > 30 µM (inactive) | 0.94 µM (active) |  | COc1cc(OC)c(/C=C/S(=O)(=O)Cc2ccc(OC)c(NCC(=O)O)c2)c(OC)c1 [RIGOSERTIB] |
| > 30 µM (inactive) | > 30 µM (inactive) | > 30 µM (inactive) |  |  |  | > 30 µM (inactive) |  |  |  |  |  |  | Nc1nc(N)c2nc(-c3cccc(O)c3)c(-c3cccc(O)c3)nc2n1 [TG100-115] |
| > 30 µM (inactive) |  | > 30 µM (inactive) | > 30 µM (inactive) |  | > 30 µM (inactive) | > 30 µM (inactive) |  | > 30 µM (inactive) | > 30 µM (inactive) | > 30 µM (inactive) |  | > 30 µM (inactive) | COc1cc2nccc(Oc3ccc(NC(=O)Nc4cc(C)on4)c(Cl)c3)c2cc1OC [TIVOZANIB] |
| > 30 µM (inactive) |  |  | > 30 µM (inactive) | > 30 µM (inactive) |  | > 30 µM (inactive) | > 30 µM (inactive) |  | > 30 µM (inactive) | > 30 µM (inactive) | > 30 µM (inactive) | > 30 µM (inactive) | CCCS(=O)(=O)Nc1ccc(F)c(C(=O)c2c[nH]c3ncc(-c4ccc(Cl)cc4)cc23)c1F [VEMURAFENIB] |

| Compound | Kd [1] | Kd [2] | Kd [3] | Kd [4] | Kd [5] | Kd [6] | Kd [7] | Kd [8] | Kd [9] | Kd [10] | Kd [11] | Kd [12] | Kd [13] |
| --- | --- | --- | --- | --- | --- | --- | --- | --- | --- | --- | --- | --- | --- |
| O=C(c1ccc(F)c(F)c1Nc1ccc(I)cc1F)N1CC(O)([C@@H]2CCCCN2)C1 [COBIMETINIB] | > 30 µM (inactive) | > 30 µM (inactive) | > 30 µM (inactive) | > 30 µM (inactive) | > 30 µM (inactive) |  | > 30 µM (inactive) | > 30 µM (inactive) | > 30 µM (inactive) |  |  | > 30 µM (inactive) | > 30 µM (inactive) |
